{"source": "ChEMBL document CHEMBL1127370", "about": "“Synthesis and structure-activity relationship of methyl-substituted indolo[2,3-b]quinolines: novel cytotoxic, DNA topoisomerase II inhibitors” (J Med Chem, 1994)", "key": {"Candida albicans": {"system": "Candida albicans", "assay": "microbe, parasite or virus in culture", "description": "Tested for antimicrobial activity against Candida albicans (clinical isolate) at concentration of 0.01-5 uM/mL"}, "Nucleic Acid": {"system": "Nucleic Acid", "conditions": "Bos taurus", "description": "Increase of calf thymus DNA denaturation temperature (delta Tm)"}, "Trichophyton benhamiae": {"system": "Trichophyton benhamiae", "assay": "microbe, parasite or virus in culture", "description": "Tested for antimicrobial activity against Trichophyton mentagrophytes (clinical isolate) at concentration of 0.01-5 uM/mL"}, "Staphylococcus aureus": {"system": "Staphylococcus aureus", "assay": "microbe, parasite or virus in culture", "description": "Tested for antimicrobial activity against Staphylococcus aureus PCM 458 at concentration of 0.01-5 uM/mL"}, "Micrococcus luteus": {"system": "Micrococcus luteus", "assay": "microbe, parasite or virus in culture", "description": "Tested for antimicrobial activity against Micrococcus luteus PCM 525 at concentration of 0.01-5 uM/mL"}}, "data": [{"smiles": "Cc1ccc2nc3n(C)c4ccc(C)cc4c(C)c-3c2c1", "values": [{"measurement": "MIC", "setting": "Candida albicans", "value": 15, "unit": "µM"}, {"measurement": "ΔTm", "setting": "Nucleic Acid", "value": 19, "unit": "°C"}, {"measurement": "MIC", "setting": "Trichophyton benhamiae", "value": 30, "unit": "µM"}, {"measurement": "ID50", "setting": "KB", "value": 0.002, "unit": "uM ml-1"}, {"measurement": "MIC", "setting": "Staphylococcus aureus", "value": 30, "unit": "µM"}, {"measurement": "MIC", "setting": "Micrococcus luteus", "value": 15, "unit": "µM"}, {"measurement": "pKa", "setting": "physchem", "value": 7.68}]}, {"smiles": "Cc1c2c3ccccc3nc-2n(C)c2ccccc12", "values": [{"measurement": "MIC", "setting": "Candida albicans", "value": 30, "unit": "µM"}, {"measurement": "ΔTm", "setting": "Nucleic Acid", "value": 11, "unit": "°C"}, {"measurement": "MIC", "setting": "Trichophyton benhamiae", "value": 60, "unit": "µM"}, {"measurement": "ID50", "setting": "KB", "value": 0.004, "unit": "uM ml-1"}, {"measurement": "MIC", "setting": "Staphylococcus aureus", "value": 120, "unit": "µM"}, {"measurement": "MIC", "setting": "Micrococcus luteus", "value": 60, "unit": "µM"}, {"measurement": "pKa", "setting": "physchem", "value": 7.45}]}, {"smiles": "Cc1c2ccncc2c(C)c2c1[nH]c1ccccc12", "note": "[ELLIPTECINE]", "values": [{"measurement": "ΔTm", "setting": "Nucleic Acid", "value": 9.8, "unit": "°C"}, {"measurement": "ID50", "setting": "KB", "value": 0.07, "unit": "uM ml-1"}, {"measurement": "pKa", "setting": "physchem", "value": 7.4}]}, {"smiles": "Cc1ccc2c(c1)c(C)c1c3ccccc3nc-1n2C", "values": [{"measurement": "MIC", "setting": "Candida albicans", "value": 15, "unit": "µM"}, {"measurement": "ΔTm", "setting": "Nucleic Acid", "value": 13.3, "unit": "°C"}, {"measurement": "MIC", "setting": "Trichophyton benhamiae", "value": 30, "unit": "µM"}, {"measurement": "ID50", "setting": "KB", "value": 0.003, "unit": "uM ml-1"}, {"measurement": "MIC", "setting": "Staphylococcus aureus", "value": 60, "unit": "µM"}, {"measurement": "MIC", "setting": "Micrococcus luteus", "value": 30, "unit": "µM"}, {"measurement": "pKa", "setting": "physchem", "value": 7.6}]}, {"smiles": "c1ccc2[nH]c3nc4ccccc4c-3cc2c1", "values": [{"measurement": "ΔTm", "setting": "Nucleic Acid", "value": 0.3, "unit": "°C"}, {"measurement": "ID50", "setting": "KB", "value": 0.6, "unit": "uM ml-1"}, {"measurement": "pKa", "setting": "physchem", "value": 5.55}]}, {"smiles": "Cc1cccc2c(C)c3c(nc12)[nH]c1ccccc13", "values": [{"measurement": "ΔTm", "setting": "Nucleic Acid", "value": 1.1, "unit": "°C"}, {"measurement": "ID50", "setting": "KB", "value": 0.1, "unit": "uM ml-1"}, {"measurement": "pKa", "setting": "physchem", "value": 5.78}]}, {"smiles": "Cc1c2c3ccccc3nc-2n(C)c2c(C)cccc12", "values": [{"measurement": "MIC", "setting": "Candida albicans", "value": 120, "unit": "µM"}, {"measurement": "ΔTm", "setting": "Nucleic Acid", "value": 10.4, "unit": "°C"}, {"measurement": "MIC", "setting": "Trichophyton benhamiae", "value": 60, "unit": "µM"}, {"measurement": "ID50", "setting": "KB", "value": 0.009, "unit": "uM ml-1"}, {"measurement": "MIC", "setting": "Staphylococcus aureus", "value": 250, "unit": "µM"}, {"measurement": "MIC", "setting": "Micrococcus luteus", "value": 120, "unit": "µM"}, {"measurement": "pKa", "setting": "physchem", "value": 7.62}]}, {"smiles": "Cc1ccc2[nH]c3nc4ccccc4c(C)c3c2c1", "values": [{"measurement": "ΔTm", "setting": "Nucleic Acid", "value": 0.9, "unit": "°C"}, {"measurement": "ID50", "setting": "KB", "value": 0.1, "unit": "uM ml-1"}, {"measurement": "pKa", "setting": "physchem", "value": 5.8}]}, {"smiles": "Cc1ccc2[nH]c3nc4ccccc4c-3c(C)c2c1", "values": [{"measurement": "ΔTm", "setting": "Nucleic Acid", "value": 1.4, "unit": "°C"}, {"measurement": "ID50", "setting": "KB", "value": 0.1, "unit": "uM ml-1"}, {"measurement": "pKa", "setting": "physchem", "value": 5.73}]}, {"smiles": "Cn1c2nc3ccccc3c-2cc2ccccc21", "note": "[NEOCRYPTOLEPINE]", "values": [{"measurement": "MIC", "setting": "Candida albicans", "value": 120, "unit": "µM"}, {"measurement": "ΔTm", "setting": "Nucleic Acid", "value": 5.2, "unit": "°C"}, {"measurement": "MIC", "setting": "Trichophyton benhamiae", "value": 60, "unit": "µM"}, {"measurement": "ID50", "setting": "KB", "value": 0.006, "unit": "uM ml-1"}, {"measurement": "MIC", "setting": "Staphylococcus aureus", "value": 250, "unit": "µM"}, {"measurement": "MIC", "setting": "Micrococcus luteus", "value": 250, "unit": "µM"}, {"measurement": "pKa", "setting": "physchem", "value": 7.24}]}, {"smiles": "COc1cccc2c1C(=O)c1c(O)c3c(c(O)c1C2=O)C[C@@](O)(C(=O)CO)C[C@@H]3O[C@H]1C[C@H](N)[C@H](O)[C@H](C)O1", "values": [{"measurement": "ΔTm", "setting": "Nucleic Acid", "value": 13, "unit": "°C"}]}, {"smiles": "Cc1ccc2nc3[nH]c4ccc(C)cc4c(C)c-3c2c1", "values": [{"measurement": "ΔTm", "setting": "Nucleic Acid", "value": 1.6, "unit": "°C"}, {"measurement": "ID50", "setting": "KB", "value": 0.1, "unit": "uM ml-1"}, {"measurement": "pKa", "setting": "physchem", "value": 5.98}]}, {"smiles": "Cc1c2c3ccccc3nc-2[nH]c2ccccc12", "values": [{"measurement": "ΔTm", "setting": "Nucleic Acid", "value": 0.7, "unit": "°C"}, {"measurement": "ID50", "setting": "KB", "value": 0.2, "unit": "uM ml-1"}, {"measurement": "pKa", "setting": "physchem", "value": 5.7}]}]}
